Assay results reported in patent publication US7138361B2, “Herbicidal heterocycles” (E. I. du Pont de Nemours and Company, priority 2000, dated 2006).

Assays:
Assay in all cases: Test B preemergence
Format in all cases: in vivo
[1] = tested on: giant foxtail (Setaria faberii)
In short: (§1)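 Seeds were planted and sprayed preemergence with test chemical in a non-phytotoxic solvent mixture containing surfactant; postemergence plants (2 to 18 cm, 1- to 4-leaf stage) received the same formulation. Greenhouse hold 13 to 15 days, then visual rating versus untreated controls on a 0–100 scale (0 no effect, 100 complete control).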

[2] = tested on: pigweed (Amaranthus retroflexus)
In short: as §1

[3] = tested on: velvetleaf (Abutilon theophrasti)
In short: as §1

[4] = tested on: lambsquarters (Chenopodium album)
In short: as §1

[5] = tested on: barnyardgrass (Echinochloa crus-galli)
In short: as §1

[6] = tested on: corn (Zea mays)
In short: as §1

[7] = tested on: cocklebur (Xanthium strumarium)
In short: as §1

[8] = tested on: crabgrass (Digitaria sanguinalis)
In short: as §1

[9] = tested on: morning glory (Ipomoea hederacea)
In short: as §1

[10] = tested on: Surinam grass (Brachiaria decumbens)
In short: as §1

[11] = tested on: rice (Oryza saliva)
In short: as §1

[12] = Preemergence, Rate 500 g/ha, scale 0 to 100, 0 no effect, 100 complete control
[13] = preemergence, Rate 125 g/ha, scale 0 to 100, 0 no effect, 100 complete control
[14] = preemergence, Rate 62 g/ha, scale of 0 to 100 where 0 is no effect and 100 is complete control, 13 to 15 days
[15] = preemergence, Rate 250 g/ha, scale 0 to 100, 0 no effect, 100 complete control
[16] = preemergence, Rate 125 g/ha, scale of 0 to 100 where 0 is no effect and 100 is complete control, 13 to 15 days

## CC(C)(C)c1ccn(C2CCN(c3cccc(C(F)(F)F)c3)C2=O)n1 (stereo not drawn) [Example 3, 3-[3-(1,1-dimethylethyl)-1H-pyrazol-1-yl]-1-[3-(trifluoromethyl)phenyl]-2-pyrrolidinone]
[1]; [12]
  Plant response rating, Foxtail, Giant: 80
[1]; [13]
  Plant response rating, Foxtail, Giant: 40
[2]; [12]
  Plant response rating, Pigweed: 100
[2]; [13]
  Plant response rating, Pigweed: 100
[3]; [12]
  Plant response rating, Velvetleaf: 0
[3]; [13]
  Plant response rating, Velvetleaf: 0
[4]; [12]
  Plant response rating, Lambsquarters: 100
[4]; [13]
  Plant response rating, Lambsquarters: 100
[5]; [12]
  Plant response rating, Barnyardgrass: 100
[5]; [13]
  Plant response rating, Barnyardgrass: 80
[6]; [12]
  Plant response rating, Corn: 30
[6]; [13]
  Plant response rating, Corn: 0
[7]; [12]
  Plant response rating, Cocklebur: 0
[7]; [13]
  Plant response rating, Cocklebur: 0
[8]; [12]
  Plant response rating, Crabgrass: 100
[8]; [13]
  Plant response rating, Crabgrass: 70
[9]; [12]
  Plant response rating, Morningglory: 0
[9]; [13]
  Plant response rating, Morningglory: 0
[10]; [12]
  Plant response rating, Surinam grass: 70
[10]; [13]
  Plant response rating, Surinam grass: 40

## CC(C)(C)c1ccn(C2SCN(c3cccc(C(F)(F)F)c3)C2=O)n1 (stereo not drawn) [Compound 1]
[1]; [12]
  Plant response rating, Foxtail, Giant: 100
[1]; [13]
  Plant response rating, Foxtail, Giant: 50
[2]; [12]
  Plant response rating, Pigweed: 100
[2]; [13]
  Plant response rating, Pigweed: 100
[3]; [12]
  Plant response rating, Velvetleaf: 30
[3]; [13]
  Plant response rating, Velvetleaf: 0
[4]; [12]
  Plant response rating, Lambsquarters: 100
[4]; [13]
  Plant response rating, Lambsquarters: 100
[5]; [12]
  Plant response rating, Barnyardgrass: 100
[5]; [13]
  Plant response rating, Barnyardgrass: 50
[6]; [12]
  Plant response rating, Corn: 20
[6]; [13]
  Plant response rating, Corn: 0
[7]; [12]
  Plant response rating, Cocklebur: 40
[7]; [13]
  Plant response rating, Cocklebur: 0
[8]; [12]
  Plant response rating, Crabgrass: 100
[8]; [13]
  Plant response rating, Crabgrass: 0
[9]; [12]
  Plant response rating, Morningglory: 40
[9]; [13]
  Plant response rating, Morningglory: 20
[10]; [12]
  Plant response rating, Surinam grass: 0
[10]; [13]
  Plant response rating, Surinam grass: 0

## CCC(C)c1nn(C2CCN(c3cccc(C(F)(F)F)c3)C2=O)cc1Cl (stereo not drawn) [Compound 13]
[11]; [12]
  Plant response rating, Rice: 0
[11]; [13]
  Plant response rating, Rice: 0
[1]; [12]
  Plant response rating, Foxtail, Giant: 0
[1]; [13]
  Plant response rating, Foxtail, Giant: 0
[2]; [12]
  Plant response rating, Pigweed: 0
[2]; [13]
  Plant response rating, Pigweed: 0
[3]; [12]
  Plant response rating, Velvetleaf: 0
[3]; [13]
  Plant response rating, Velvetleaf: 0
[4]; [12]
  Plant response rating, Lambsquarters: 0
[4]; [13]
  Plant response rating, Lambsquarters: 0
[5]; [12]
  Plant response rating, Barnyardgrass: 0
[5]; [13]
  Plant response rating, Barnyardgrass: 0
[6]; [12]
  Plant response rating, Corn: 0
[6]; [13]
  Plant response rating, Corn: 0
[7]; [12]
  Plant response rating, Cocklebur: 0
[7]; [13]
  Plant response rating, Cocklebur: 0
[8]; [12]
  Plant response rating, Crabgrass: 0
[8]; [13]
  Plant response rating, Crabgrass: 0
[9]; [12]
  Plant response rating, Morningglory: 0
[9]; [13]
  Plant response rating, Morningglory: 0
[10]; [12]
  Plant response rating, Surinam grass: 0
[10]; [13]
  Plant response rating, Surinam grass: 0

## CC(C)(C)c1ccn(C2OCN(c3cccc(C(F)(F)F)c3)C2=O)n1 (stereo not drawn) [compound 9]
[11]; [14]
  Plant response rating, Rice: 0
[11]; [15]
  Plant response rating, Rice: 0
[1]; [14]
  Plant response rating, Foxtail, Giant: 30
[1]; [15]
  Plant response rating, Foxtail, Giant: 90
[2]; [14]
  Plant response rating, Pigweed: 80
[2]; [15]
  Plant response rating, Pigweed: 100
[3]; [14]
  Plant response rating, Velvetleaf: 0
[3]; [15]
  Plant response rating, Velvetleaf: 0
[4]; [14]
  Plant response rating, Lambsquarters: 90
[4]; [15]
  Plant response rating, Lambsquarters: 100
[5]; [14]
  Plant response rating, Barnyardgrass: 0
[5]; [15]
  Plant response rating, Barnyardgrass: 60
[6]; [14]
  Plant response rating, Corn: 0
[6]; [15]
  Plant response rating, Corn: 0
[7]; [14]
  Plant response rating, Cocklebur: 0
[7]; [15]
  Plant response rating, Cocklebur: 0
[8]; [14]
  Plant response rating, Crabgrass: 0
[8]; [15]
  Plant response rating, Crabgrass: 100
[9]; [14]
  Plant response rating, Morningglory: 0
[9]; [15]
  Plant response rating, Morningglory: 0
[10]; [14]
  Plant response rating, Surinam grass: 0
[10]; [15]
  Plant response rating, Surinam grass: 70

## CCC(CC)c1ccn(C2OCN(c3cccc(OC(F)(F)F)c3)C2=O)n1 (stereo not drawn) [Compound 68]
[11]; [12]
  Plant response rating, Rice: 30
[11]; [16]
  Plant response rating, Rice: 0
[1]; [12]
  Plant response rating, Foxtail, Giant: 20
[2]; [12]
  Plant response rating, Pigweed: 100
[2]; [16]
  Plant response rating, Pigweed: 100
[3]; [12]
  Plant response rating, Velvetleaf: 0
[3]; [16]
  Plant response rating, Velvetleaf: 0
[4]; [12]
  Plant response rating, Lambsquarters: 100
[4]; [16]
  Plant response rating, Lambsquarters: 100
[5]; [12]
  Plant response rating, Barnyardgrass: 100
[5]; [16]
  Plant response rating, Barnyardgrass: 100
[6]; [12]
  Plant response rating, Corn: 20
[6]; [16]
  Plant response rating, Corn: 0
[7]; [12]
  Plant response rating, Cocklebur: 0
[7]; [16]
  Plant response rating, Cocklebur: 0
[8]; [12]
  Plant response rating, Crabgrass: 20
[9]; [12]
  Plant response rating, Morningglory: 0
[9]; [16]
  Plant response rating, Morningglory: 0
[10]; [12]
  Plant response rating, Surinam grass: 0
[10]; [16]
  Plant response rating, Surinam grass: 0

## O=C1C(n2cccn2)CCN1c1cccc(C(F)(F)F)c1 (stereo not drawn) [Compound 15]
[11]; [12]
  Plant response rating, Rice: 0
[11]; [13]
  Plant response rating, Rice: 0
[1]; [12]
  Plant response rating, Foxtail, Giant: 0
[1]; [13]
  Plant response rating, Foxtail, Giant: 0
[2]; [12]
  Plant response rating, Pigweed: 0
[2]; [13]
  Plant response rating, Pigweed: 0
[3]; [12]
  Plant response rating, Velvetleaf: 70
[3]; [13]
  Plant response rating, Velvetleaf: 50
[4]; [12]
  Plant response rating, Lambsquarters: 60
[4]; [13]
  Plant response rating, Lambsquarters: 0
[5]; [12]
  Plant response rating, Barnyardgrass: 0
[5]; [13]
  Plant response rating, Barnyardgrass: 0
[6]; [12]
  Plant response rating, Corn: 0
[6]; [13]
  Plant response rating, Corn: 0
[7]; [12]
  Plant response rating, Cocklebur: 0
[7]; [13]
  Plant response rating, Cocklebur: 0
[8]; [12]
  Plant response rating, Crabgrass: 0
[8]; [13]
  Plant response rating, Crabgrass: 0
[9]; [12]
  Plant response rating, Morningglory: 30
[9]; [13]
  Plant response rating, Morningglory: 0
[10]; [12]
  Plant response rating, Surinam grass: 20
[10]; [13]
  Plant response rating, Surinam grass: 0

## CC1(c2ccn(C3OCN(c4cccc(OC(F)(F)F)c4)C3=O)n2)CC1 (stereo not drawn) [Compound 69]
[11]; [12]
  Plant response rating, Rice: 0
[11]; [16]
  Plant response rating, Rice: 0
[1]; [12]
  Plant response rating, Foxtail, Giant: 0
[1]; [16]
  Plant response rating, Foxtail, Giant: 0
[2]; [12]
  Plant response rating, Pigweed: 90
[2]; [16]
  Plant response rating, Pigweed: 60
[3]; [12]
  Plant response rating, Velvetleaf: 0
[3]; [16]
  Plant response rating, Velvetleaf: 0
[4]; [12]
  Plant response rating, Lambsquarters: 100
[4]; [16]
  Plant response rating, Lambsquarters: 90
[5]; [12]
  Plant response rating, Barnyardgrass: 40
[5]; [16]
  Plant response rating, Barnyardgrass: 20
[6]; [12]
  Plant response rating, Corn: 0
[6]; [16]
  Plant response rating, Corn: 0
[7]; [12]
  Plant response rating, Cocklebur: 20
[7]; [16]
  Plant response rating, Cocklebur: 0
[8]; [12]
  Plant response rating, Crabgrass: 0
[8]; [16]
  Plant response rating, Crabgrass: 0
[9]; [12]
  Plant response rating, Morningglory: 0
[9]; [16]
  Plant response rating, Morningglory: 0
[10]; [12]
  Plant response rating, Surinam grass: 20
[10]; [16]
  Plant response rating, Surinam grass: 20

## CC1CCc2cn(C3CCN(c4cccc(C(F)(F)F)c4)C3=O)nc21 (stereo not drawn) [Compound 11]
[11]; [12]
  Plant response rating, Rice: 0
[11]; [13]
  Plant response rating, Rice: 0
[1]; [12]
  Plant response rating, Foxtail, Giant: 0
[1]; [13]
  Plant response rating, Foxtail, Giant: 0
[2]; [12]
  Plant response rating, Pigweed: 0
[2]; [13]
  Plant response rating, Pigweed: 0
[3]; [12]
  Plant response rating, Velvetleaf: 0
[3]; [13]
  Plant response rating, Velvetleaf: 0
[4]; [12]
  Plant response rating, Lambsquarters: 0
[4]; [13]
  Plant response rating, Lambsquarters: 0
[5]; [12]
  Plant response rating, Barnyardgrass: 0
[5]; [13]
  Plant response rating, Barnyardgrass: 0
[6]; [12]
  Plant response rating, Corn: 0
[6]; [13]
  Plant response rating, Corn: 0
[7]; [12]
  Plant response rating, Cocklebur: 0
[7]; [13]
  Plant response rating, Cocklebur: 0
[8]; [12]
  Plant response rating, Crabgrass: 0
[8]; [13]
  Plant response rating, Crabgrass: 0
[9]; [12]
  Plant response rating, Morningglory: 0
[9]; [13]
  Plant response rating, Morningglory: 0
[10]; [12]
  Plant response rating, Surinam grass: 0
[10]; [13]
  Plant response rating, Surinam grass: 0

## O=C1C(n2cc(Cl)c(C3CC3)n2)CCN1c1cccc(C(F)(F)F)c1 (stereo not drawn) [Compound 12]
[11]; [12]
  Plant response rating, Rice: 0
[11]; [13]
  Plant response rating, Rice: 0
[1]; [12]
  Plant response rating, Foxtail, Giant: 0
[1]; [13]
  Plant response rating, Foxtail, Giant: 0
[2]; [12]
  Plant response rating, Pigweed: 0
[2]; [13]
  Plant response rating, Pigweed: 0
[3]; [12]
  Plant response rating, Velvetleaf: 0
[3]; [13]
  Plant response rating, Velvetleaf: 0
[4]; [12]
  Plant response rating, Lambsquarters: 0
[4]; [13]
  Plant response rating, Lambsquarters: 0
[5]; [12]
  Plant response rating, Barnyardgrass: 0
[5]; [13]
  Plant response rating, Barnyardgrass: 0
[6]; [12]
  Plant response rating, Corn: 0
[6]; [13]
  Plant response rating, Corn: 0
[7]; [12]
  Plant response rating, Cocklebur: 0
[7]; [13]
  Plant response rating, Cocklebur: 0
[8]; [12]
  Plant response rating, Crabgrass: 0
[8]; [13]
  Plant response rating, Crabgrass: 0
[9]; [12]
  Plant response rating, Morningglory: 0
[9]; [13]
  Plant response rating, Morningglory: 0
[10]; [12]
  Plant response rating, Surinam grass: 0
[10]; [13]
  Plant response rating, Surinam grass: 0
